For assay [1], the system named is M. incognita J2s. The assay is described as follows: Serotonin-induced stylet thrusting assay. It is filed as in vivo, Meloidogyne incognita. Particulars: Fig 1C; J2s incubated in 100 μM uNLP for 24 h; stylet thrusts in 5 mM serotonin, counted 1 min; normalised to control = 100%; mean, at least 30 J2s. How it is done: (§1) Predicted uNLPs from both M. incognita and G. pallida were synthesised by EZBiolab and dissolved into pH adjusted ddH2O to make a 5 mM stock which was aliquoted and stored at -20°C. J2s of both M. incognita and G. pallida were incubated for 24 hours in 200 μl of each peptide in a 24 well plate (SPL Lifesciences, South Korea) at a defined concentration.
Stylet thrusting assays where performed by incubating 100 M. incognita or G. pallida J2s for 15 minute in 5 mM or 2 mM serotonin (Sigma Aldrich, USA), respectively. J2s were placed on a glass slide and stylet thrusts were counted for randomly selected J2s, for 1 minute each. Counts for a given cohort of J2s were taken in a maximum interval of 15 minutes. Longer counting intervals, making for longer serotonin incubations, yielded inconsistent results. At least 30 J2s were counted for each neuropeptide treatment.

The subject of assay [2] is M. incognita J2s. The assay is described as follows: Chemosensory (chemotaxis) assay of uNLP pre-treated J2s towards tomato root exudate. In kind it is in vivo, Meloidogyne incognita. How it is done: as §1
A 60 mm Petri dish was divided into two segments, a positive and a negative side, with a 0.5 cm 'dead zone' either side of the centre point. The petri dish was filled with 15 ml of 0.25% w/v agar which was allowed to solidify. 3 ml of 0.25% w/v agar slurry in spring water (pH 7, agitated with a magnetic stirrer for several hours to give a smooth consistency) was added to the petri dish and spread evenly over the surface. Root diffusate (attractant) and water only (control) 0.25% agar plugs were embedded in the agar slurry, either side of the assay arena. Root diffusate was collected from 10 tomato plants, aged 3–6 weeks in 1 litre pots, by pouring 500 ml of ddH20 through the soil three times. Diffusate from each plant was combined, filter sterilised and stored at 4°C for a maximum of 1 month. Root diffusate agar plugs were made by melting 1.25% agar in ddH20, cooling to 50°C before mixing with 4 parts of root diffusate. The agar was then allowed to solidify at room temperature. 100 uNLP pre-treated M. incognita or G. pallida J2s were added by pipette to the centre of the plate. J2s which moved out of the 'dead zone' after 3 hours were counted and their location (+/-) scored. The distribution of J2s were used to create a chemotaxis index for each plate, which formed one replicate, a total of 10 replicates where completed for each uNLP treatment.

Another assay concerns mixed-stage C. elegans. Put plainly: C. elegans chemotaxis assay (non-target). It is filed as in vivo, Caenorhabditis elegans. The conditions noted are these: worms soaked in 100 μM uNLP 24 h, counted after 1 h, 8 replicates. How it is done: C. elegans wild-type N2 Bristol strain were obtained from the C. elegans Genomics Center and maintained on a Escherichia coli (strain OP50) lawn on nematode growth medium (NGM) agar plates (3 g/l NaCl, 17 g/l agar, 2.5 g/l peptone, 5 mg/l cholesterol, 25 mM KH2PO4 (pH 6.0), 1 mM CaCl2, 1 mM MgSO4) at 20°C [70]. Chemotaxis assays were performed in a 9 cm diameter Petri dish on NGM agar which was split into a positive and negative side with a central ‘dead zone’ of 1.5 cm diameter. 100 mixed-staged C. elegans were washed three times in M9 buffer and soaked in 100 μM PPN uNLP, or M9 vehicle control for 24 hours. 2 μl of 50 mM sodium acetate, 0.5% pyrazine, 0.5% benzaldehyde or 0.5% diacetyl was spotted onto the positive side, 2 μl of ddH20 was spotted onto the negative side. Pyrazine, benzaldehyde and diacetyl volatile attractants were assayed immediately whereas the water soluble sodium acetate was assayed 18 hours following addition to the plate. Assays were maintained in the dark at 20°C, and counted after 1 hour. Eight replicates were conducted for each C. elegans attraction assay.

The subject of assay [3] is M. incognita J2s. Put plainly: Plant protection assay, B. subtilis secreting uNLPs. The conditions noted are these: Fig 4B; peptide secreted by transgenic B. subtilis culture in tomato invasion arena with 500 J2s; control = 100%; mean. In kind it is in vivo, Meloidogyne incognita. How it is done: Tomato seeds were sterilised with 2.5% NaOCl for 15 minutes, washed 5 times in ddH20 and germinated on 0.5% Murashige and Skoog plates at 23°C. […] Invasion assays were performed by mixing 500 pre-treated M. incognita or G. pallida J2s with agar slurry and a single tomato seedling (2 days post germination) in a 6 well plate. Assays were left at 23°C for 24 hours in the case of M. incognita and at 18°C for 24 hours in the case of G. pallida under a 16 hour light and 8 hour darkness cycle. Seedlings were stained using acid fuschin [69] and the number of nematodes within the roots counted. At least five seedlings were used for M. incognita infections assays, with at least 15 seedlings used for G. pallida infections assays (due to increased variation).
B. subtilis were grown overnight in LB media containing ampicillin (100 μg/ml) at 37°C with shaking, and harvested in the log phase of growth determined by measuring OD600nm. Five ml of culture at 0.5 OD was spun down and the pellet mixed with 3 ml of agar slurry and 500 J2s from either G. pallida or M. incognita. C. reinhardtii clones were grown at 23°C with shaking, cultures in the log phase were measured at OD750 and 5 ml of culture at 0.5 OD was pelleted by centrifugation. C. reinhardtii pellets were mixed with 3 ml of agar slurry and 500 J2s from either G. pallida or M. incognita. Plant invasion assays were performed as described above. […]

“Also recorded” adds a separate entry of the source.

For the sequence “SFDSFTGPGFTGLD [Mi-NLP-15b, predicted unamidated NLP perfectly conserved between M. incognita and G. pallida; synthesised, also secreted from transgenic microbes]”, the “% Thrusting” value in the assay with M. incognita J2s [1] was found to be 129.90%. In the assay on M. incognita J2s [2] (100 μM uNLP, 24 h, relative to controls), the “effect on chemosensation (in words)” value was “inhibit chemosensation; also recorded: inhibited”. In addition, the CI score with M. incognita J2s [2] (Fig 1A, J2s incubated in 100 μM uNLP for 24 h, tomato cv. Moneymaker root exudate vs water agar plugs, counted after 3 h, mean of 10 replicates of 100 J2s, control 0.4426) was -0.3408; in the assay on M. incognita J2s [2] (Fig 3A, 100 pM peptide, 24 h, control 0.4133, mean), 0.03117; in the assay with M. incognita J2s [2] (Fig 3A, 1 nM peptide, 24 h, control 0.4133, mean), -0.07105; in the assay on M. incognita J2s [2] (Fig 3A, 10 nM peptide, 24 h, control 0.4133, mean), -0.1741; in the assay with M. incognita J2s [2] (Fig 3A, 100 nM peptide, 24 h, control 0.4133, mean), -0.1195; in the assay on M. incognita J2s [2] (Fig 3A, 1 µM peptide, 24 h, control 0.4133, mean) it was -0.1344. Further, the CI score was -0.03579 with M. incognita J2s [2] (Fig 3A, 10 µM peptide, 24 h, control 0.4133, mean); -0.3782 in the assay with M. incognita J2s [2] (Fig 3A, 100 µM peptide, 24 h, control 0.4133, mean); -0.1553 in the assay on M. incognita J2s [2] (Fig 3A, concentration printed as 22:00:00, 24 h, control 0.4133, mean); 0.3142 in the assay on mixed-stage C. elegans (Fig 5A, attractant sodium acetate (50 mM), control 0.4269); 0.4959 in the assay with mixed-stage C. elegans (Fig 5B, attractant pyrazine (0.5%), control 0.4904); 0.7032 with mixed-stage C. elegans (Fig 5C, attractant benzaldehyde (0.5%), control 0.7026). This sequence also registered a CI score in the assay with mixed-stage C. elegans (Fig 5D, attractant diacetyl (0.5%), control 0.6638) of 0.664. In addition, in the assay with M. incognita J2s [2] (serial dilution, 24 h exposure (Fig 3)), the “lowest concentration inhibiting chemosensation” value is listed as at most 10 pM. For the same sequence, in the assay with M. incognita J2s [3], the “% Invasion” value was found to be 26.63%.
